Data: patent publication US7115619B2, “N8, N13 -disubstituted quino[4,3,2-kl]acridinium salts as therapeutic agents” (Cancer Research Technology Limited, priority 2000, dated 2006)
Counter-ions that a name gives are not always drawn.

Assays:
[1] = Growth inhibition, sulforhodamine B (SRB) assay, CH1; type: cell-based; details: human, CH1 ovarian carcinoma cells, 96 hr incubation, read-out: Cytotoxicity IC50 CH1
Protocol: (§1) Growth inhibition was measured in the following cells lines using the sulforhodamine B (SRB) assay: • A2780: human ovarian carcinoma cell line. • CH1: human ovarian carcinoma cell line. • SKOV-3: human ovarian carcinoma cell line. • A431: human vulval carcinoma cells (short telomeres). • GM847: carcinoma cell line immortalised by ALT pathway.
(§2) Briefly, between 3000 and 6000 cells were seeded into the wells of 96-well microtiter plates and allowed to attach overnight. Test compounds (salts) were dissolved at 500 μM in water and immediately added to wells in quadruplicate at final concentrations of 0.05, 0.25, 1, 5 and 25 μM. Following an incubation period of 96 hr, remaining cells were fixed with ice-cold 10% w/v trichloroacetic acid (30 min) and stained with 0.4% SRB in 1% v/v acetic acid (15 min). Mean absorbance at 540 nm for each drug concentration was expressed as a percentage of the control untreated well absorbance, and IC50 values (concentration required to inhibit cell growth by 50%) were determined for each agent.

[2] = Growth inhibition, sulforhodamine B (SRB) assay, SKOV-3; type: cell-based; details: human, SKOV-3 ovarian carcinoma cells, 96 hr incubation, read-out: Cytotoxicity IC50 SKOV-3
Protocol: as §1, §2

[3] = target: T1, telomerase (extracts from A2780 human ovarian carcinoma cells) (Homo sapiens, UniProt O14746); assay: Modified telomeric repeat amplification protocol (TRAP) assay, cell-free; type: biochemical; details: A2780 cell extract, agent up to 50 μM, 20 min, read-out: telIC50
T1 construct: extracts from exponentially growing A2780 human ovarian carcinoma cells
T1 sequence (O14746 whole entry): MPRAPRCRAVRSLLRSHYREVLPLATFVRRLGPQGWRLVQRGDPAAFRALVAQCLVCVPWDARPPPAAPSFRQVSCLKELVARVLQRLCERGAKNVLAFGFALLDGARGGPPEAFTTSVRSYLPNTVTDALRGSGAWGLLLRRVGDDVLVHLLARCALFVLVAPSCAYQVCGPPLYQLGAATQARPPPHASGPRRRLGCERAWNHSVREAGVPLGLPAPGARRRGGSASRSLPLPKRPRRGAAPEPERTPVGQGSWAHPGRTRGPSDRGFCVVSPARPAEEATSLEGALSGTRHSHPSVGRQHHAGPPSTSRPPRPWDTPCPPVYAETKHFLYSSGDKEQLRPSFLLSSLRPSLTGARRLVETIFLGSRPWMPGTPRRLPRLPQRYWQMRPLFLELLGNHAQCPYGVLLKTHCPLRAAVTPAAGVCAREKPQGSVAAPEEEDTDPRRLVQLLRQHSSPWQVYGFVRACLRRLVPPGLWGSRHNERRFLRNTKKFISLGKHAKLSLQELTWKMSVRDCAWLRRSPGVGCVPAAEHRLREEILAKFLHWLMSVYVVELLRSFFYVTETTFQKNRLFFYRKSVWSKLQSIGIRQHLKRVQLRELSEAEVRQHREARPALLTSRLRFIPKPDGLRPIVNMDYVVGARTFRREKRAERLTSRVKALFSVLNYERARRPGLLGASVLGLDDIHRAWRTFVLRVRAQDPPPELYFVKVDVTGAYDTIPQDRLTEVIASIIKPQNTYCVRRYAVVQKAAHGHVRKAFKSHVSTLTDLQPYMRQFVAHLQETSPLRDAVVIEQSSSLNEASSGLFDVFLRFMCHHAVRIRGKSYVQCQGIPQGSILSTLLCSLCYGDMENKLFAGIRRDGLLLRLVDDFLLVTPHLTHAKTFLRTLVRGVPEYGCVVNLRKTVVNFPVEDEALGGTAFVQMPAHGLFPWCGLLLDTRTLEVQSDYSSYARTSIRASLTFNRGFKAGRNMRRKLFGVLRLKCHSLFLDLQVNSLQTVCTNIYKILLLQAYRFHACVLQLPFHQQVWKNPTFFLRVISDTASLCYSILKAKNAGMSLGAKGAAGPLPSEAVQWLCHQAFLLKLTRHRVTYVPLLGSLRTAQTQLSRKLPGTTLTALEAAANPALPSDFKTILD
Protocol: The ability of compounds to inhibit telomerase in a cell-free assay was assessed with a modified TRAP assay using extracts from exponentially growing A2780 human ovarian carcinoma cells. The TRAP assay was performed in 2 steps: (a) telomerase-mediated extension of the forward primer (TS: 5′-AATCCGTCGAGCAGAGTT, Oswel Ltd., Southampton, UK) contained in a 40 μL reaction mix comprising TRAP buffer (20 mM Tris-HCl (pH 8.3), 68 mM KCl, 1.5 mM MgCl2, 1 mM EGTA, 0.05% v/v Tween 20), 0.05 μg bovine serum albumin, 50 μM of each deoxynucleotide triphosphate, 0.1 μg TS primer, and 3 μCi of [α-^32P]dCTP (Amersham plc, UK). Protein (0.04 μg) was then incubated with the reaction mix±agent (acid addition and quaternary dimethiodide salts) at final concentrations of up to 50 μM for 20 min at […]. A lysis buffer (no protein) control, heat-inactivated protein control, and 50% protein (0.02 μg) control were included in each assay; and (b) while heating at […]. in a PCR block of a thermal cycler (Hybaid, UK) for 5 min to inactivate telomerase activity, 0.1 μg of reverse CX primer (3′-[…]-5′) and 2 Units of Taq DNA polymerase (“red hot”, Advanced Biotechnologies) were added. A 3-step PCR was then performed: 94° C. for 30 s, 50° C. for 30 s, and […]. for 1 min for 31 cycles. Telomerase-extended PCR products in the presence or absence of compounds were then determined either by electrophoretic separation using 8% w/w acrylamide denaturing gels and analysis by phosphorimaging or autoradiography, or by harvesting on Whatman filters (25 mm glass microfibre) and analysis by liquid scintillation counting.

[4] = Growth inhibition, sulforhodamine B (SRB) assay, A2780; type: cell-based; details: human, A2780 ovarian carcinoma cells, 96 hr incubation, read-out: Cytotoxicity IC50 A2780
Protocol: as §1, §2

[5] = Growth inhibition, sulforhodamine B (SRB) assay, GM847; type: cell-based; details: human, GM847 cells (immortalised by ALT pathway), 96 hr incubation, read-out: Cytotoxicity IC50 GM847
Protocol: as §2, with “Growth inhibition was measured in the following cells lines using the sulforhodamine B (SRB) assay: • A2780: human ovarian carcinoma cell line. • CH1: human ovarian carcinoma cell line. • SKOV-3: human ovarian carcinoma cell line. • A431: human vulval carcinoma cells (short telomeres). • GM847: carcinoma cell line immortalised by ALT pathway. Briefly,” for “Briefly,”

[6] = Growth inhibition, sulforhodamine B (SRB) assay, A431; type: cell-based; details: human, A431 vulval carcinoma cells (short telomeres), 96 hr incubation, read-out: Cytotoxicity IC50 A431
Protocol: as §2, with “Growth inhibition was measured in the following cells lines using the sulforhodamine B (SRB) assay: • A2780: human ovarian carcinoma cell line. • CH1: human ovarian carcinoma cell line. • SKOV-3: human ovarian carcinoma cell line. • A431: human vulval carcinoma cells (short telomeres). • GM847: carcinoma cell line immortalised by ALT pathway. Briefly,” for “Briefly,”

melting point | IC50 [3] | SMILES | IC50 at 96 h [1] | IC50 at 96 h [2] | IC50 at 96 h [4] | IC50 at 96 h [5] | IC50 at 96 h [6]
225 to 227 °C |  | CN1c2ccccc2-c2c3c1cccc3c1cc(Cl)ccc1[n+]2C (as salt: iodide) [RHPS06, 3-Chloro-8,13-dimethyl-8H-quino[4,3,2-kl]acridinium iodide] |  |  |  |  | 
200 to 202 °C |  | COC(=O)/C=C/c1ccc2c(c1)c1cccc3c1c([n+]2C)-c1ccccc1N3C (as salt: iodide) [RHPS15, (E)-3-(8,13-Dimethyl-8H-quino[4,3,2-kl]acridinium-3-yl)-acrylic acid methyl ester iodide] |  |  |  |  | 
250 to 252 °C |  | Cc1cc2c3c([n+](C)c4ccc(Cl)cc4c3c1)-c1cc(Cl)ccc1N2C (as salt: sulfate) [RHPS02, 3,11-Dichloro-6,8,13-trimethyl-8H-quino[4,3,2-kl]acridinium methylsulfate] |  |  |  |  | 
190 to 192 °C |  | Cc1cc2c3c([n+](C)c4ccccc4c3c1)-c1ccccc1N2C (as salt: sulphate) [RHPS01, 6,8,13-Trimethyl-8H-quino[4,3,2-kl]acridinium methyl sulphate] |  |  |  |  | 
240 to 242 °C |  | Cc1ccc2c(c1)-c1c3c(cc(C)cc3c3cc(C)ccc3[n+]1C)N2C (as salt: sulphate) [RHPS03, 3,6,8,11,13-Pentamethyl-8H-quino[4,3,2-kl]acridinium methyl sulphate] |  |  |  |  | 
 | 740 nM | Cc1cc2c3c([n+](C)c4ccccc4c3c1)-c1ccccc1N2C [RHPS01, 6,8,13-Trimethyl-8H-quino[4,3,2-kl]acridinium methyl sulphate] | 370 nM | 3600 nM | 900 nM |  | 
 | 240 nM | Cc1cc2c3c([n+](C)c4ccc(Cl)cc4c3c1)-c1cc(Cl)ccc1N2C [RHPS02, 3,11-Dichloro-6,8,13-trimethyl-8H-quino[4,3,2-kl]acridinium methylsulfate] | 1400 nM | 9300 nM | 1300 nM |  | 
 | 180 nM | Cc1ccc2c(c1)-c1c3c(cc(C)cc3c3cc(C)ccc3[n+]1C)N2C [RHPS03, 3,6,8,11,13-Pentamethyl-8H-quino[4,3,2-kl]acridinium methyl sulphate] | 290 nM | 750 nM | 330 nM |  | 
 | 310 nM | Cc1cc2c3c([n+](C)c4ccc(F)cc4c3c1)-c1cc(F)ccc1N2C [RHPS04, 3,11-Difluoro-6,8,13-trimethyl-8H-quino[4,3,2-kl]acridinium methyl sulphate] | 500 nM | 23000 nM | 1100 nM |  | 
 | 1550 nM | CN1c2ccccc2-c2c3c1cccc3c1ccccc1[n+]2C [RHPS05, 8,13-Dimethyl-8H-quino[4,3,2-kl]acridinium iodide] | 1100 nM | 18000 nM | 1600 nM |  | 
 | 260 nM | CN1c2ccccc2-c2c3c1cccc3c1cc(Cl)ccc1[n+]2C [RHPS06, 3-Chloro-8,13-dimethyl-8H-quino[4,3,2-kl]acridinium iodide] | 500 nM | 12500 nM | 1100 nM |  | 
 | 940 nM | CN1c2cc(Cl)ccc2-c2c3c1cccc3c1cc(Cl)ccc1[n+]2C [RHPS07, 3,10-Dichloro-8,13-dimethyl-8H-quino[4,3,2-kl]acridinium iodide] | 3800 nM | > 25000 nM | 14500 nM |  | 
 | 470 nM | COc1cc2c3c([n+](C)c4ccccc4c3c1)-c1ccccc1N2C [RHPS08, 8,13-Dimethyl-6-methoxy-8H-quino[4,3,2-kl]acridinium iodide] | 130 nM | 3600 nM | 620 nM |  | 
 | 3020 nM | COC(=O)CCc1ccc2c(c1)c1cccc3c1c([n+]2C)-c1ccccc1N3C [RHPS09, 3-(8,13-Dimethyl-8H-quino[4,3,2-kl]acridinium-3-yl)-propionic acid methyl ester iodide] | 11500 nM | > 25000 nM | > 25000 nM |  | 
 | 240 nM | COc1cc2c3c([n+](C)c4ccc(Cl)cc4c3c1)-c1ccccc1N2C [RHPS10, 3-Chloro-8,13-dimethyl-6-methoxy-8H-quino[4,3,2-kl]acridinium iodide] | 1100 nM | 6300 nM |  | 800 nM | 3200 nM
 | 280 nM | COc1cc2c3c([n+](C)c4ccccc4c3c1)-c1ccc(Cl)cc1N2C [RHPS12, 10-Chloro-8,13-dimethyl-6-methoxy-8H-quino[4,3,2-kl]acridinium iodide] | 300 nM | 10000 nM |  | 400 nM | 1000 nM
 | 570 nM | COC(=O)Oc1cc2c3c([n+](C)c4ccccc4c3c1)-c1ccccc1N2C [RHPS13, 6-Methoxycarbonyloxy-8,13-dimethyl-8H-quino[4,3,2-kl]acridinium iodide] | 200 nM | 1500 nM |  | 500 nM | 400 nM
 | 190 nM | COC(=O)/C=C/c1ccc2c(c1)c1cccc3c1c([n+]2C)-c1ccccc1N3C [RHPS15, (E)-3-(8,13-Dimethyl-8H-quino[4,3,2-kl]acridinium-3-yl)-acrylic acid methyl ester iodide] | 2200 nM | 19000 nM |  | 4500 nM | 3200 nM
 | 370 nM | CN1c2ccccc2-c2c3c1cccc3c1cc(/C=C/C(=O)N3CCOCC3)ccc1[n+]2C [RHPS16, 8,13-Dimethyl-(E)-3-(3-morpholin-4-yl-3-oxo-propenyl)-8H-quino[4,3,2-kl]acridinium iodide] | 17800 nM | > 25000 nM |  | > 25000 nM | 12500 nM

SMILES | melting point | IC50 [3] | IC50 at 96 h [1] | IC50 at 96 h [2] | IC50 at 96 h [4] | IC50 at 96 h [5] | IC50 at 96 h [6]
CC(=O)Oc1cc2c3c([n+](C)c4ccccc4c3c1)-c1ccccc1N2C [RHPS11, 6-Acetoxy-8,13-dimethyl-8H-quino[4,3,2-kl]acridinium iodide] |  | 1700 nM | 1600 nM | 3500 nM |  | 17700 nM | 1700 nM
